Measured values reported in patent US20070167512A1, “Lipid metabolism improving agent” (Kyowa Hakko Kogyo Co., Ltd., priority 2003, published 2007).

How the values were obtained:
[1] = tested on: KK-Ay/Ta Jcl mice (animal models for hypertriglyceridemia and hyper-free fatty acidemia); assay: Serum triglyceride concentration in KK-Ay/Ta Jcl mice fed compound-supplemented CE-2 feed (Triglyceride G-Test Wako); format: in vivo; settings: for Triglyceride (serum concentration): KK-Ay/Ta Jcl male mice, 1% by weight in CE-2 feed ad libitum, serum after 18 h fast, 10th-11th day, mean ± standard error (n=5), Group 1 (CE-2 only) 282.4 ± 30.3; for Action for improving hypertriglyceridemia (conclusion) / Serum triglyceride concentration as compared with Group 1 (in words): KK-Ay/Ta Jcl mice, 1% by weight in feed; for Serum triglyceride concentration as compared with Group 1 (in words): t-test, p < 0.01 where significant
From the text: (§1) KK-Ay/Ta Jcl mice (CLEA JAPAN; males; six weeks age) (25 mice) which are animal models for appearing hypertriglyceridemia and hyper-free fatty acidemia were divided into five groups each comprising five mice and named group 1 to group 5.
(§2) The mice of group 1 to group 5 were made free to take feed and water. A commercially available feed CE-2 (manufactured by CLEA JAPAN) was ingested to the mice of group 1. CE-2 to which 1% by weight of trans-4-hydroxy-L-proline (manufactured by Kyowa Hakko Kogyo; hereinafter, abbreviated as hydroxyproline) was added was ingested to the mice of group 2. CE-2 to which 1% by weight of trans-N-acetyl-4-hydroxy-L-proline (manufactured by Kyowa Hakko Kogyo; hereinafter, abbreviated as N-acetylhydroxyproline) was added was ingested to the mice of group 3. CE-2 to which 1% by weight of trans-4-hydroxy-L-proline ethyl ester (manufactured by Sanyo Kagaku Kenkyusho; hereinafter, abbreviated as hydroxyproline ethyl ester) was added was ingested to the mice of group 4. CE-2 to which 1% by weight of trans-N,O-diacetyl-4-hydroxy-L-proline oleyl ester (manufactured by Nissei Kagaku; hereinafter, abbreviated as diacetylhydroxyproline oleyl ester) was added was ingested to the mice of group 5.
(§3) The mice were fasted for 18 hours during the 10th day to the 11th day after the start of the test and whole blood was collected from descending vena carva to prepare serum. Concentration of triglyceride in the serum was measured by a Triglyceride G-Test Wako (manufactured by Wako Pure Chemical) and concentration of free fatty acids therein was measured by an NEFA C-Test Wak (manufactured by Wako Pure Chemical). The value was shown by mean value ± standard error (n=5) and statistic ratio of risk (p value) was determined by a t-test. With regard to the ingested amounts during the test period, there was no significant difference among the groups 1 to 5.

[2] = tested on: KK-Ay/Ta Jcl mice (animal models for hypertriglyceridemia and hyper-free fatty acidemia); assay: Serum free fatty acid concentration in KK-Ay/Ta Jcl mice fed compound-supplemented CE-2 feed (NEFA C-Test); format: in vivo; settings: for Free Fatty Acid (serum concentration): KK-Ay/Ta Jcl male mice, 1% by weight in CE-2 feed ad libitum, serum after 18 h fast, 10th-11th day, mean ± standard error (n=5), Group 1 (CE-2 only) 1.12 ± 0.05; for Action for improving hyper-free fatty acidemia (conclusion) / Free fatty acid concentration in serum as compared with Group 1 (in words): KK-Ay/Ta Jcl mice, 1% by weight in feed; for Free fatty acid concentration in serum as compared with Group 1 (in words): t-test, p < 0.005 where significant
From the text: as §1, §2, §3

Structure (SMILES) | Triglyceride (serum concentration) [1] [mg/dL] | Action for improving hypertriglyceridemia (conclusion) [1] | Serum triglyceride concentration as compared with Group 1 (in words) [1] | Free Fatty Acid (serum concentration) [2] [mEq/l] | Action for improving hyper-free fatty acidemia (conclusion) [2] | Free fatty acid concentration in serum as compared with Group 1 (in words) [2]
CCOC(=O)[C@@H]1C[C@@H](O)CN1 [hydroxyproline ethyl ester, trans-4-hydroxy-L-proline ethyl ester] | 168.7 ± 13.4 | action for improving hypertriglyceridemia | significantly low | 0.68 ± 0.02 | action for improving hyper-free fatty acidemia | significantly low
CC(=O)N1C[C@H](O)C[C@H]1C(=O)O [N-acetylhydroxyproline, trans-N-acetyl-4-hydroxy-L-proline] | 156.4 ± 23.3 | action for improving hypertriglyceridemia | significantly low | 0.77 ± 0.06 | action for improving hyper-free fatty acidemia | significantly low
O=C(O)[C@@H]1C[C@@H](O)CN1 [hydroxyproline, trans-4-hydroxy-L-proline] | 224.3 ± 23.1 | action for improving hypertriglyceridemia | tended to show low values | 0.84 ± 0.05 | action for improving hyper-free fatty acidemia | significantly low
CCCCCCCC/C=C\CCCCCCCCOC(=O)[C@@H]1C[C@@H](OC(C)=O)CN1C(C)=O (relative stereo) [diacetylhydroxyproline oleyl ester, trans-N,O-diacetyl-4-hydroxy-L-proline oleyl ester] | 217.6 ± 18.3 | action for improving hypertriglyceridemia | tended to show low values | 1.00 ± 0.07 | action for improving hyper-free fatty acidemia | tended to show low values
